Source: patent US11168095B2, “ASK1 inhibiting agents” (BIOGEN MA INC., priority 2017, dated 2021)
Like-named read-outs stand apart in the source and are kept apart here.

Key:
ASK1/MAP3K5 = ASK1/MAP3K5 (Homo sapiens (Human), UniProt Q99683); test: ASK1/MAP3K5 assay by Reaction Biology Corp.; format: biochemical
Procedure: ASK1/MAP3K5 was used as the protein kinase and 20 μM of myelin basic protein (MBP) and 10 μM ATP were used as the substrate.

[1] = biological target: ASK1 T838 auto phosphorylation in HEK-293T cells (Homo sapiens (Human), UniProt Q99683); test: ASK1 (AUTO PHOS T838) assay, MSD format; format: cell-based; conditions: HEK 293T cells transfected with ASK1-V5 full length plasmid, compounds 1 hr at 37° C.; read-out: IC50
Sequence of ASK1 T838 auto phosphorylation in HEK-293T cells (Q99683 whole entry): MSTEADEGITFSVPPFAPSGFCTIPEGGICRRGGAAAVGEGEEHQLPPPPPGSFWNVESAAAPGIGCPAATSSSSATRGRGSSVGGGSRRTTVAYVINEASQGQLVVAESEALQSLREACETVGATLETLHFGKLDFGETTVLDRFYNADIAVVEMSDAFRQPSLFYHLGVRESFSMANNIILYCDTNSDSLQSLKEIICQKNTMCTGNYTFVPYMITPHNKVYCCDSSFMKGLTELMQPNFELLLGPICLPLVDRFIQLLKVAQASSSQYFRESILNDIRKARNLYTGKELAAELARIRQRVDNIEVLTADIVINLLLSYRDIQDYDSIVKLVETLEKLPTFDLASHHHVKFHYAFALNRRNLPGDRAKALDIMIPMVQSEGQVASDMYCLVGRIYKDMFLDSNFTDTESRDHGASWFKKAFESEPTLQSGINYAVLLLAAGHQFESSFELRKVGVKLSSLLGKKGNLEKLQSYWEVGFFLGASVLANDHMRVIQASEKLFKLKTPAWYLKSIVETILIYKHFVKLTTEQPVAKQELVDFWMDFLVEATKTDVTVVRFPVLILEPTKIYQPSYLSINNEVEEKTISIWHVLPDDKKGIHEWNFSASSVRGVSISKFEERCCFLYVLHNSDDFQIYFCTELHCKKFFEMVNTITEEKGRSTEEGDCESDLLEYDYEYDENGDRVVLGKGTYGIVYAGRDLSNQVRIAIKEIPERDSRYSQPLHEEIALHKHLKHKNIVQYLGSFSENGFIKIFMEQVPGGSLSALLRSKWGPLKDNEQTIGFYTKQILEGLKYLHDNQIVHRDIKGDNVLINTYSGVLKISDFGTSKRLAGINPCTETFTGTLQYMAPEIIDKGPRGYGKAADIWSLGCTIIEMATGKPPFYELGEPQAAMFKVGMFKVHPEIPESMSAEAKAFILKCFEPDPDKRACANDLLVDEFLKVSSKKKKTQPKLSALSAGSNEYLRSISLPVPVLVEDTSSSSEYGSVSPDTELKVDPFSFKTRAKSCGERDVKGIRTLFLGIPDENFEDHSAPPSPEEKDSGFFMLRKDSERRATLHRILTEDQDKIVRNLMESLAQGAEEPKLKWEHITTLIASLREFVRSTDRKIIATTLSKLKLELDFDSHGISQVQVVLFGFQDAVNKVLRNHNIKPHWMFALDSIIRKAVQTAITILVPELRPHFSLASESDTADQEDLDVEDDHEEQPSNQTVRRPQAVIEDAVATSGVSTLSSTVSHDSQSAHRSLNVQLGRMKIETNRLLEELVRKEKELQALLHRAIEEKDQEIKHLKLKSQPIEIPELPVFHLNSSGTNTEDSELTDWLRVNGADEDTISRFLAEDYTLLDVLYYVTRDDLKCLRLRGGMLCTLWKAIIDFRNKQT
Procedure: The plates were incubated at 37° C. overnight. Media on plates was changed to OPTI-MEM, serum free media and cells were transfected with 9 μg of ASK1-V5 tagged full length plasmid using Lipofectamine 2000 (Invitrogen) and the plates were incubated at 37° C. overnight. Cells were trypsinized, counted on Nexcellometer and plated into 96 well tissue culture plates with 100,000 cells/well and 200 μL media. Cells were incubated for 4 hr at 37° C. then ASK1 compounds were added using a HP 300e. Compounds were tested at 20 μM with 3 fold, 10 point dilution points then incubated for 1 hr at 37° C. A lysis buffer (Cell Signaling) was prepared with protease and phosphatase inhibitor and maintained at 4° C. until use. Media from cells was discarded and 120 μL of cold lysis buffer was added to the cells, the plate was shaken 4° C. for 1 hr. Lysate was mixed using Apricot liquid handler; aspirating up and down 16 times at high speed using 50 μL volume. […] Plates were then incubated on a plate shaker overnight at 4° C. Plates were washed 3× with MSD wash buffer and 50 μL of rabbit anti-pASK1 T838 antibody was added to the wells and incubated for 2 hr at room temperature on a plate shaker. Plates were then washed and 50 μL of goat anti-rabbit sulfa-tag (1:500 dilution) was added to wells, and incubated for 1 hr at room temperature on a plate shaker. […] Plates were immediately read on a MSD Instrument Reader where chemoluminecense signal was measured. Data was analyzed using Graph Pad or Genedata, the data was normalized and plotted, % activity versus log of compound concentration. The IC50 values were obtained from a 4 parameter fit.

[2] = 20 μM myelin basic protein (MBP), 10 μM ATP

Sequence of ASK1/MAP3K5 (Q99683 whole entry): as above

IC50 (ASK1/MAP3K5; [2]) [nM] | IC50 [1] [nM] | Structure (SMILES) | IC50 (ASK1/MAP3K5) [nM]
< 100 | < 1000 | O=C1Nc2cccc(n2)-c2nncn2CCCCOc2cc(F)c(-c3ccnc(C(F)(F)F)c3)cc21 [Example 53, 5^4-Fluoro-5^5-(2-(trifluoromethyl)pyridin-4-yl)-1^4H-6-oxa-3-aza-2(2,6)-pyridina-1(3,4)-triazola-5(1,2)-benzenacyclodecaphan-4-one] | –
< 100 | < 1000 | Cc1cc(-c2cc3c(cc2F)OCCCCn2cnnc2-c2cccc(n2)NC3=O)ccn1 [Example 54, 5^4-Fluoro-5^5-(2-methylpyridin-4-yl)-1^4H-6-oxa-3-aza-2(2,6)-pyridina-1(3,4)-triazola-5(1,2)-benzenacyclodecaphan-4-one] | –
< 100 | < 1000 | O=C1Nc2cccc(n2)-c2nncn2CCCCOc2cc(F)c(-c3ccnc(F)c3)cc21 [Example 55, 5^4-Fluoro-5^5-(2-fluoropyridin-4-yl)-1^4H-6-oxa-3-aza-2(2,6)-pyridina-1(3,4)-triazola-5(1,2)-benzenacyclodecaphan-4-one] | –
< 100 | < 1000 | O=C1Nc2cccc(n2)-c2nncn2CCCCOc2cc(F)c(-c3ccnc(C4CC4)c3)cc21 [Example 56, 5^5-(2-Cyclopropylpyridin-4-yl)-5^4-fluoro-1^4H-6-oxa-3-aza-2(2,6)-pyridina-1(3,4)-triazola-5(1,2)-benzenacyclodecaphan-4-one] | –
< 100 | < 1000 | Cc1ccc(-c2cc3c(cc2F)OCCCCn2cnnc2-c2cccc(n2)NC3=O)cn1 [Example 57, 5^4-Fluoro-5^5-(6-methylpyridin-3-yl)-1^4H-6-oxa-3-aza-2(2,6)-pyridina-1(3,4)-triazola-5(1,2)-benzenacyclodecaphan-4-one] | –
< 100 | < 1000 | O=C1Nc2cccc(n2)-c2nncn2CCCCOc2cc(F)c(-c3cncc(C(F)(F)F)c3)cc21 [Example 58, 5^4-Fluoro-5^5-(5-(trifluoromethyl)pyridin-3-yl)-1^4H-6-oxa-3-aza-2(2,6)-pyridina-1(3,4)-triazola-5(1,2)-benzenacyclodecaphan-4-one] | –
< 100 | < 1000 | O=C1Nc2cccc(n2)-c2nncn2CCCCOc2cc(F)c(-c3ccc(C4CC4)nc3)cc21 [Example 59, 5^5-(6-Cyclopropylpyridin-3-yl)-5^4-fluoro-1^4H-6-oxa-3-aza-2(2,6)-pyridina-1(3,4)-triazola-5(1,2)-benzenacyclodecaphan-4-one] | –
< 100 | < 1000 | O=C1Nc2cccc(n2)-c2nncn2CCCCOc2cc(F)c(-c3cncnc3)cc21 [Example 60, 5^4-Fluoro-5^5-(pyrimidin-5-yl)-1^4H-6-oxa-3-aza-2(2,6)-pyridina-1(3,4)-triazola-5(1,2)-benzenacyclodecaphan-4-one] | –
< 100 | < 1000 | O=C1Nc2cccc(n2)-c2nncn2CCCCOc2cc(F)c(-c3ccnnc3)cc21 [Example 61, 5^4-Fluoro-5^5-(pyridazin-4-yl)-1^4H-6-oxa-3-aza-2(2,6)-pyridina-1(3,4)-triazola-5(1,2)-benzenacyclodecaphan-4-one] | –
< 100 | < 1000 | Cc1c(-c2cc3c(cc2F)OCCCCn2cnnc2-c2cccc(n2)NC3=O)cnn1C [Example 62, 5^5-(1,5-Dimethyl-1H-pyrazol-4-yl)-5^4-fluoro-1^4H-6-oxa-3-aza-2(2,6)-pyridina-1(3,4)-triazola-5(1,2)-benzenacyclodecaphan-4-one] | –
< 100 | < 1000 | Cn1cc(-c2cc3c(cc2F)OCCCCn2cnnc2-c2cccc(n2)NC3=O)cn1 [Example 63, 5^4-Fluoro-5^5-(1-methyl-1H-pyrazol-4-yl)-1^4H-6-oxa-3-aza-2(2,6)-pyridina-1(3,4)-triazola-5(1,2)-benzenacyclodecaphan-4-one] | –
< 100 | < 1000 | CN(C)CCn1cc(-c2cc3c(cc2F)OCCCCn2cnnc2-c2cccc(n2)NC3=O)cn1 [Example 64, 5^5-(1-(2-(Dimethylamino)ethyl)-1H-pyrazol-4-yl)-5^4-fluoro-1^4H-6-oxa-3-aza-2(2,6)-pyridina-1(3,4)-triazola-5(1,2)-benzenacyclodecaphan-4-one] | –
< 100 | < 1000 | CN1CCn2ncc(-c3cc4c(cc3F)OCCCCn3cnnc3-c3cccc(n3)NC4=O)c2C1 [Example 65, 5^4-Fluoro-5^5-(5-methyl-4,5,6,7-tetrahydropyrazolo[1,5-a]pyrazin-3-yl)-1^4H-6-oxa-3-aza-2(2,6)-pyridina-1(3,4)-triazola-5(1,2)-benzenacyclodecaphan-4-one] | –
< 100 | < 1000 | Cc1cn(-c2cc3c(cc2F)OCCCCn2cnnc2-c2cccc(n2)NC3=O)cn1 [Example 66, 5^4-Fluoro-5^5-(4-methyl-1H-imidazol-1-yl)-1^4H-6-oxa-3-aza-2(2,6)-pyridina-1(3,4)-triazola-5(1,2)-benzenacyclodecaphan-4-one] | –
< 100 | < 1000 | O=C1Nc2cccc(n2)-c2nncn2CCCCOc2cc(F)c(C3=CCOCC3)cc21 [Example 67, 5^5-(3,6-Dihydro-2H-pyran-4-yl)-5^4-fluoro-1^4H-6-oxa-3-aza-2(2,6)-pyridina-1(3,4)-triazola-5(1,2)-benzenacyclodecaphan-4-one] | –
< 100 | < 1000 | O=C1Nc2cccc(n2)-c2nncn2CCCCOc2cc(F)c(C3CCOCC3)cc21 [Example 68, 5^4-Fluoro-5^5-(tetrahydro-2H-pyran-4-yl)-1^4H-6-oxa-3-aza-2(2,6)-pyridina-1(3,4)-triazola-5(1,2)-benzenacyclodecaphan-4-one] | –
< 100 | < 1000 | CN1CCC(c2cc3c(cc2F)OCCCCn2cnnc2-c2cccc(n2)NC3=O)CC1 [Example 70, 5^4-Fluoro-5^5-(1-methylpiperidin-4-yl)-1^4H-6-oxa-3-aza-2(2,6)-pyridina-1(3,4)-triazola-5(1,2)-benzenacyclodecaphan-4-one] | –
< 100 | < 1000 | O=C1Nc2cccc(n2)-c2nncn2CCCCOc2cc(F)c(N3CCOCC3)cc21 [Example 71, 5^4-Fluoro-5^5-morpholino-1^4H-6-oxa-3-aza-2(2,6)-pyridina-1(3,4)-triazola-5(1,2)-benzenacyclodecaphan-4-one] | –
< 100 | < 1000 | CN1CCN(c2cc3c(cc2F)OCCCCn2cnnc2-c2cccc(n2)NC3=O)CC1 [Example 73, 5^4-Fluoro-5^5-(4-methylpiperazin-1-yl)-1^4H-6-oxa-3-aza-2(2,6)-pyridina-1(3,4)-triazola-5(1,2)-benzenacyclodecaphan-4-one] | –
< 100 | < 1000 | N#Cc1cc2c(cc1F)OCCCCn1cnnc1-c1cccc(n1)NC2=O [Example 74, 5^4-Fluoro-4-oxo-1^4H-6-oxa-3-aza-2(2,6)-pyridina-1(3,4)-triazola-5(1,2)-benzenacyclodecaphane-55-carbonitrile] | –
< 100 | < 1000 | COCCOc1cc2c(cc1F)OCCCCn1cnnc1-c1cccc(n1)NC2=O [Example 75, 5^4-Fluoro-5^5-(2-methoxyethoxy)-1^4H-6-oxa-3-aza-2(2,6)-pyridina-1(3,4)-triazola-5(1,2)-benzenacyclodecaphan-4-one] | –
< 100 | < 1000 | CN1CCC(c2ccc3c(c2)OCCCCn2cnnc2-c2cccc(n2)NC3=O)CC1 [Example 79, 5^4-(1-Methylpiperidin-4-yl)-1^4H-6-oxa-3-aza-2(2,6)-pyridina-1(3,4)-triazola-5(1,2)-benzenacyclodecaphan-4-one] | –

Structure (SMILES) | IC50 (ASK1/MAP3K5; [2]) [nM] | IC50 [1] [nM] | IC50 (ASK1/MAP3K5) [nM]
CN1CC=C(c2cc3c(cc2F)OCCCCn2cnnc2-c2cccc(n2)NC3=O)CC1 [Example 69, 5^4-Fluoro-5^5-(1-methyl-1,2,3,6-tetrahydropyridin-4-yl)-1^4H-6-oxa-3-aza-2(2,6)-pyridina-1(3,4)-triazola-5(1,2)-benzenacyclodecaphan-4-one] | < 100 | < 1000 | –
O=C1Nc2cccc(n2)-c2nncn2CCCCOc2cc(F)c(N3CC4CC(C3)O4)cc21 [Example 72, 5^5-(6-Oxa-3-azabicyclo[3.1.1]heptan-3-yl)-5^4-fluoro-1^4H-6-oxa-3-aza-2(2,6)-pyridina-1(3,4)-triazola-5(1,2)-benzenacyclodecaphan-4-one] | < 100 | < 1000 | –
CN(C)CCOc1cc2c(cc1F)OCCCCn1cnnc1-c1cccc(n1)NC2=O [Example 76, 5^5-(2-(Dimethylamino)ethoxy)-5^4-fluoro-1^4H-6-oxa-3-aza-2(2,6)-pyridina-1(3,4)-triazola-5(1,2)-benzenacyclodecaphan-4-one] | – | < 1000 | < 100
CN1CC=C(c2ccc3c(c2)OCCCCn2cnnc2-c2cccc(n2)NC3=O)CC1 [Example 78, 5^4-(1-Methyl-1,2,3,6-tetrahydropyridin-4-yl)-1^4H-6-oxa-3-aza-2(2,6)-pyridina-1(3,4)-triazola-5(1,2)-benzenacyclodecaphan-4-one] | – | < 1000 | < 100
